Source: BindingDB's records for doi:10.1016/s0960-894x(00)00062-7 (University of Bristol, 2000)

Test: Inhibition of 3 nM [3H]clonidine binding to rat kidney membrane imidazoline receptor I-1 in presence of rauwolscine

IC50: 8.1 µM
Structure (SMILES): N#CSc1ccc2oc(C3=NCCN3)cc2c1
